The values that follow come from paper PMC9687021, “Bactericidal and Anti-Biofilm Activity of the FtsZ Inhibitor C109 against Acinetobacter baumannii” (Antibiotics, 2022).

The IC50 is the concentration needed to halve the response being measured.

The structures appear in SMILES notation.

This experiment has as its target T1, FtsZ (Acinetobacter baumannii, UniProt A0ABX6CKC9).
T1 construct: full-length (1176 bp ftsZ gene), SUMO tag removed
Kind of experiment: PK/LDH coupled GTPase assay on purified FtsZ; sedimentation polymerization assay. Type of experiment: biochemical.

T1 sequence (A0ABX6CKC9 entry or part of it): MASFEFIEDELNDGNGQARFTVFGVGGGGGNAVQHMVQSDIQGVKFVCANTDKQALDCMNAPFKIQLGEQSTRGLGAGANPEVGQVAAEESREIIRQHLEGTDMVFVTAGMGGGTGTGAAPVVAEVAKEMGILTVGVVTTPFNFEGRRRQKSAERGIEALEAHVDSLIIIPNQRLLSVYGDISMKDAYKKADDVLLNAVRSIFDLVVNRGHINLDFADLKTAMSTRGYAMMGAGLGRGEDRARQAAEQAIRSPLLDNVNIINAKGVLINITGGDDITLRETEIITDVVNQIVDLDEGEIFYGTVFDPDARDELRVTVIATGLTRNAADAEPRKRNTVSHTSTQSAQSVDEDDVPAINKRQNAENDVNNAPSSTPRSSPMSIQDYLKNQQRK

Take `COC(=O)CSc1ccc2nsnc2c1[N+](=O)[O-]` [C109, methyl [(4-nitro-2,1,3-benzothiadiazol-5-yl)thio]acetate]: the IC50 came out at 11.8 µM.
